{"source": "patent US20240173325A1", "about": "“METHODS FOR TREATING SPINAL MUSCULAR ATROPHY” (Genentech, Inc., priority 2022, published 2024)", "key": {"SMN protein [1]": {"system": "SMN protein", "assay": "SMN protein levels in whole blood (Roche Elecsys immunoassay)", "format": "in vivo, human", "method": "Table 7A and Table 7B presents SMN protein levels in whole blood (measured in ng/mL) in the carrier and the subject as the fetal subject and the neonatal subject of this Example, and reference values are shown in Table 7C below. Table 7B is a continuation of Table 7A from 32.5 weeks gestation prior to administration of risdiplam to the carrier through 43 days post-delivery. SMN protein levels in the whole blood were performed using an immunoassay developed by Roche Diagnostics on the Elecsys® platform."}, "neonatal subject": {"system": "neonatal subject", "assay": "Electrophysiological testing (CMAP, MUNE)", "format": "in vivo, human", "method": "The electrophysiological testing described in this Example can serve as a prognostic biomarker. See Pino (2021) Biomark. Insights. 16:11772719211035643. Electrophysiological studies were performed using standard technique on a Natus UltraPro S100 instrument, with Natus pre-gelled disposable surface electrodes (#901350242) and standard settings for motor nerve conduction studies (LFF 10 Hz and HFF […]). The right ulnar nerve was stimulated at the elbow and recorded from the abductor digiti minimi (ADM) and the peroneal (fibular) nerve was stimulated at the knee and recorded from the tibialis anterior (TA) muscle.\nElectrophysiological measurements, such as the compound muscle action potential (CMAP) in millivolts (mV) and motor unit number estimation (MUNE), monitor the functional status of the motor unit pool and are particularly pertinent to motor neuron disorders. See Arnold (2014) Ann. Clin. Transl. Neurol. 1(1):34:44. Cross-sectional studies have shown that CMAP and MUNE correlate with other measures of motor function, clinical severity, and overall function. See Arnold (2014) Ann. Clin. Transl. Neurol. 1(1):34:44.\nThe CMAP response measures the output of the motor units supplying a particular muscle or group of muscles. The CMAP size is determined by the size and number of depolarized muscle fibers following supramaximal nerve stimulation. Three active electrode placements were used for each nerve tested and the maximal amplitude of the negative peak of the CMAP was used for analysis. As a reference study for the CMAP data provided in Table 6, an ongoing Phase 2, open-label study (NURTURE) aims to evaluate the safety and efficacy of nusinersen in preventing or profoundly attenuating the severity of SMA when initiated prior to the onset of symptoms. See De Vivo (2019) Neuromuscul. Disord. 29(11):842-856. In accordance with this reference study, CMAP amplitudes were mean (SD) 2.7 (1.5) and median (range) 2.3 (1.0-6.7) and NeuroNEXT (typically developing infants) was mean (SD) 5.5±2.0. See Kolb (2016) Ann. Clin. Transl. Neurol. 3(2):132-45.\nMUNE is an electrophysiological method that can measure the number of motor units supplying a particular muscle. It should be appreciated that the “N” of MUNE (ulnar N) in Table 6 refers to “nerve.” For pre-symptomatic SMA neonates, MUNE (ulnar N) ranges from 70-270. See Bromberg (2002) Muscle Nerve. 25(3):445-7; and Swoboda (2005) Ann Neurol. 57(5):704-12. In this Example, the MUNE was performed on the right ulnar nerve using the multipoint technique. A minimum of ten unique single motor unit potentials were captured with the mean value used for the calculation of the MUNE. […] See Swoboda, et al. (2005) Ann. Neurol. 57:704-712; and Bromberg (2002) Muscle Nerve 25:445-447."}, "neurofilament": {"system": "neurofilament", "assay": "Neurofilament light and phosphorylated heavy chain ELISA on plasma and serum", "format": "in vivo, human", "method": "Neurofilament light and phosphorylated heavy chain assays were performed on plasma and serum samples using an ELISA assay, following the manufacturer's instructions (ProteinSimple, San Jose, CA, USA). Two runs were performed, each run having 3 aliquots run on the same plate and the mean value utilized. The average of the two runs was used for interpretation and in constructing FIG. 3 and FIG. 4.\nThe x-axis in FIG. 3 and FIG. 4 is associated with the date. The x-axis in FIG. 3 includes both prenatal dates (e.g., 32.5 WG or weeks gestation-37.6 WG) and postnatal dates or “PND” (e.g., d0-d43, referring to days post-birth of the fetal subject as the neonatal subject). The y- axis in FIG. 3 and FIG. 4 is associated with the mean neurofilament levels in blood (measured in pg/mL).\nFurther, in FIG. 3 and FIG. 4, “NF-L” refers to “neurofilament light chain,” which is a neuronal protein highly expressed in large caliber myelinated axons. NF-L levels increase in cerebrospinal fluid and blood proportionally to the degree of axonal damage in a variety of neurological disorders, including inflammatory, neurodegenerative, traumatic and cerebrovascular diseases. See Gaetani (2019) J. Neurol. Neurosurg. Psychiatry. 90(8):870-881. Additionally, “pNF-H” refers to the phosphorylated neurofilament heavy subunit (or phosphorylated NF-H). Further, as shown in FIG. 3 and FIG. 4, “Ser” refers to blood serum and “Pla” refers to blood plasma."}, "SMN protein [2]": {"system": "SMN protein", "conditions": "cited from earlier work"}, "rat fetuses": {"system": "rat fetuses", "conditions": "dams treated at about 1 mg/kg/day to about 7.5 mg/kg/day; cited from earlier work"}}, "note": "Like-named read-outs stand apart in the source and are kept apart here.", "data": [{"smiles": "Cc1cn2nc(-c3cc(=O)n4cc(N5CCNC6(CC6)C5)ccc4n3)cc(C)c2n1", "note": "[risdiplam, 7-(4,7-diazaspiro[2.5]octan-7-yl)-2-(2,8-dimethylimidazo[1,2-b]pyridazin-6-yl)-4H-pyrido[1,2-a]pyrimidin-4-one]", "values": [{"measurement": "SMN protein level in whole blood relative to reference amounts", "setting": "SMN protein [1]; at d0, versus reference study (FIG. 2)", "value": "about two"}, {"measurement": "SMN protein level in whole blood", "setting": "SMN protein [1]; carrier, 32.5 WG (pre-risdiplam)", "value": 7.7, "unit": "ng/mL"}, {"measurement": "SMN protein level in whole blood", "setting": "SMN protein [1]; carrier, 36 WG", "value": 6.3, "unit": "ng/mL"}, {"measurement": "SMN protein level in whole blood", "setting": "SMN protein [1]; carrier, 38 WG", "value": 6.0, "unit": "ng/mL"}, {"measurement": "SMN protein level in whole blood", "setting": "SMN protein [1]; carrier, birth 38.5 WG", "value": 4.0, "unit": "ng/mL"}, {"measurement": "SMN protein level in whole blood", "setting": "SMN protein [1]; carrier, d 20 post birth", "value": 5.0, "unit": "ng/mL"}, {"measurement": "SMN protein level in whole blood", "setting": "SMN protein [1]; carrier, d 29 post birth", "value": 5.1, "unit": "ng/mL"}, {"measurement": "SMN protein level in whole blood", "setting": "SMN protein [1]; carrier, d 43 post birth", "value": 4.6, "unit": "ng/mL"}, {"measurement": "Decline of SMN protein level", "setting": "SMN protein [1]; carrier, from prenatal treatment until delivery", "value": 48, "unit": "%"}, {"measurement": "Increase of SMN protein level", "setting": "SMN protein [1]; carrier, postpartum period", "value": "15-28%"}, {"measurement": "Increase of SMN protein level", "setting": "SMN protein [1]; neonatal subject, at d43 following drug initiation on d8", "value": 36, "unit": "%"}, {"measurement": "SMN protein level in whole blood", "setting": "SMN protein [1]; neonatal subject, birth 38.5 WG (cord)", "value": 9.4, "unit": "ng/mL"}, {"measurement": "SMN protein level in whole blood", "setting": "SMN protein [1]; neonatal subject, d 8, no drug since birth", "value": 4.5, "unit": "ng/mL"}, {"measurement": "SMN protein level in whole blood", "setting": "SMN protein [1]; neonatal subject, d 43, oral 0.15 mg/kg/day from d8", "value": 6.1, "unit": "ng/mL"}, {"measurement": "MUNE (Ulnar N)", "setting": "neonatal subject; 1 week", "value": 167}, {"measurement": "Peroneal N CMAP", "setting": "neonatal subject; 1 week", "value": 2.7, "unit": "mV"}, {"measurement": "Ulnar N CMAP", "setting": "neonatal subject; 1 week", "value": 4.6, "unit": "mV"}, {"measurement": "Ulnar nerve CMAP relative to NURTURE median 2.3 mV", "setting": "neonatal subject; 1 week", "value": 2, "unit": "fold"}, {"measurement": "MUNE (Ulnar N)", "setting": "neonatal subject; 6 weeks", "value": 313}, {"measurement": "Peroneal N CMAP", "setting": "neonatal subject; 6 weeks", "value": 3.5, "unit": "mV"}, {"measurement": "Ulnar N CMAP", "setting": "neonatal subject; 6 weeks", "value": 5.8, "unit": "mV"}, {"measurement": "Ulnar nerve CMAP relative to NURTURE median 2.3 mV", "setting": "neonatal subject; 6 weeks", "value": 2.5, "unit": "fold"}, {"measurement": "MUNE (Ulnar N)", "setting": "neonatal subject; 18 weeks", "value": 296}, {"measurement": "Ulnar N CMAP", "setting": "neonatal subject; 18 weeks", "value": 7.1, "unit": "mV"}, {"measurement": "pNF-H level in neonatal subject compared to the carrier", "setting": "neurofilament; at delivery", "value": "about 10 fold"}, {"measurement": "NF-L levels", "setting": "neurofilament; carrier and neonatal subject, FIG. 3 and FIG. 4", "value": "low, with little change"}, {"measurement": "Increase of post-partum pNF-H levels", "setting": "neurofilament; carrier, 6-week observation period", "value": "approximately 2 fold"}, {"measurement": "pNF-H level relative to lowest value in NURTURE study participants", "setting": "neurofilament; neonatal subject", "value": 35, "unit": "%"}, {"measurement": "pNF-H level relative to NURTURE median value (20881)", "setting": "neurofilament; neonatal subject versus pre-symptomatic SMN2X2 infants under 6 weeks", "value": 1.4, "unit": "%"}, {"measurement": "pNF-H level", "setting": "neurofilament; neonatal subject, data point of FIG. 4 correlated to FIG. 5", "value": 293, "unit": "pg/mL"}, {"measurement": "SMN protein level in whole blood, reference values (median, range)", "setting": "SMN protein [2]; high dose 0.2 mg/kg/day, 4 W risdiplam", "value": "5.9 (2.8-8.8) ng/mL"}, {"measurement": "SMN protein level in whole blood, reference values (median, range)", "setting": "SMN protein [2]; high dose 0.2 mg/kg/day, 12 M risdiplam", "value": "5.7 (2.7-8.6) ng/mL"}, {"measurement": "SMN protein level in whole blood, reference values (median, range)", "setting": "SMN protein [2]; high dose 0.2 mg/kg/day, T0", "value": "T0: 2.5 (1.1-6.4) ng/mL"}, {"measurement": "SMN protein level in whole blood, reference values (median, range)", "setting": "SMN protein [2]; low dose 0.08 mg/kg/day, 4 W risdiplam", "value": "4.5 (2.6-5.6) ng/mL"}, {"measurement": "SMN protein level in whole blood, reference values (median, range)", "setting": "SMN protein [2]; low dose 0.08 mg/kg/day, 12 M risdiplam", "value": "3.0 (1.8-5.5) ng/mL"}, {"measurement": "SMN protein level in whole blood, reference values (median, range)", "setting": "SMN protein [2]; low dose 0.08 mg/kg/day, T0", "value": "T0: 1.3 (0.6-4.8) ng/mL"}, {"measurement": "Findings in rat fetuses", "setting": "rat fetuses", "value": "weight loss and minor differences in skeletal ossification"}]}]}
